From patent US20040219543A1, “Method for specifically detecting, isolating and characterizing cells from body samples by transfecting nucleic acid constructs” (priority 2001, published 2004)

Legend:
PPARδ = biological target: T1, PPARδ (Homo sapiens, UniProt Q03181); test: PPARδ-responsive αGFPT204I reporter gene expression in transfected SW480 cells incubated with NSAIDs, flow cytometry; type: cell-based; conditions: 300 μM, 10 hour incubation of transfected SW480 cells; expression returns virtually to background level
T1 construct: Because of Wnt signal activity, SW480 cells overexpress the transcription factor PPARδ; endogenous in cells; host or cells: SW480 colon carcinoma cells
T1 sequence (Q03181 1-441): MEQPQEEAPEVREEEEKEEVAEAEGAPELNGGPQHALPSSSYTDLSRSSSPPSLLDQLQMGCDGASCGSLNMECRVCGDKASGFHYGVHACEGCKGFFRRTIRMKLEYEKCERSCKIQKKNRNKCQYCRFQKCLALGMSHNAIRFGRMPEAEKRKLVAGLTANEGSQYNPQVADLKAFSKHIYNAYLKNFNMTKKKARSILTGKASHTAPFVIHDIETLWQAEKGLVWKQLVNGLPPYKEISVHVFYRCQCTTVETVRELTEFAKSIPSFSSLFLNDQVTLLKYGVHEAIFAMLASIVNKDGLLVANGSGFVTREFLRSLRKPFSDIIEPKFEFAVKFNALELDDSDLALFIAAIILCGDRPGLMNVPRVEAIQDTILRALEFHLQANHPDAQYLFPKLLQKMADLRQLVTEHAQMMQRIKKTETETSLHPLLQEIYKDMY

tumor cells = conditions: by inhibiting the PPARδ transcription factor; cited from earlier work

inhibition of the observed activation of the FOP-αGFPT204I reporter gene in the presence of functional PPARδ-DNA binding sites (PPARδ) | Compound | growth of tumor cells (tumor cells)
significantly inhibits | CSc1ccc(/C=C2/C(C)=C(CC(=O)O)c3cc(F)ccc32)cc1 [Sulindac sulphide] | –
– | CC1=C(CC(=O)O)c2cc(F)ccc2/C1=C\c1ccc([S+](C)[O-])cc1 (stereo not shown) [sulindac] | able to inhibit the growth of tumor cells
– | CC(=O)Oc1ccccc1C(=O)O [aspirin] | able to inhibit the growth of tumor cells
significantly inhibits | COc1ccc2c(c1)c(CC(=O)O)c(C)n2C(=O)c1ccc(Cl)cc1 [indomethacin] | –
